Patent publication US11219625B2, “Inhibitors of N-linked glycosylation and methods using same” (YALE UNIVERSITY, priority 2015, dated 2022)

Key:
cyclin D1 = assay: Cyclin D1 expression (qRT-PCR, western blot), PC9; assay type: cell-based, human
Method: FIGS. 5A-5G illustrate NGI-1 induces G1 arrest and senescence in EGFR addicted tumor cells. FIG. 5A illustrates cell cycle distribution of PC9 cells after 24 h NGI-1 treatment for 24 h determined by flow cytometry. […] FIG. 5B illustrates cell cycle distribution of A549 cells after 24 h NGI-1 treatment for 24 h determined by flow cytometry. FIG. 5C illustrates western blot time course of cyclin D1 expression in PC9 and A549 cells after NGI-1 treatment. FIG. 5D illustrates quantitative real-time PCR analysis of PC9 and A549 cells. A time course of cyclin D1 expression levels relative to GAPDH is represented. […] FIG. 5F illustrates senescence of PC9 cells explored by: cell autofluorescence, measured by flow cytometry using a detector for PE/YFP; lipofuscin accumulation, detected by confocal laser scanning microscopy using an excitation laser of 405 nm with acquired signals from spectrums of yellow 575-620 nm; and morphology changes, enlarged vs. flattened. […] Significance was calculated using a T test (*p<0.05. **p<0.01). FIG. 5G illustrates senescence of A549 cells explored by: cell autofluorescence, measured by flow cytometry using a detector for PE/YFP; lipofuscin accumulation, detected by confocal laser scanning microscopy using an excitation laser of 405 nm with acquired signals from spectrums of yellow 575-620 nm; and morphology changes, enlarged vs. flattened. […]

EGFR = EGFR western blot gel mobility, H3255 cells; assay type: cell-based; details: lung adenocarcinoma cells, 10 μM NGI-1, 24 h
Method: FIGS. 3A-3F illustrate the finding that NGI-1 disrupts EGFR glycosylation and cell surface expression. FIG. 3A illustrates EGFR western blots from H3255 treated with or without 10 μM NGI-1 for 24 h. Molecular weight size shifts are compared to PNGase digestion and tunicamycin treatment alone. FIG. 3B illustrates EGFR localization in H3255 cells after 24 h 10 μM NGI-1 treatment analyzed by western blot. Plasma membrane proteins present on the surface of H3255 cells were biotinylated using a non-permeable form of biotin, sulfo-NHS—SS-biotin, and precipitated by streptavidin agarose beads. Biotin-labeled plasma membrane proteins and the fraction of non-biotinylated proteins were subjected to SDS-PAGE and analyzed by western blot against EGFR. FIG. 3C illustrates EGFR localization in H3255 cells after 24 h 10 μM NGI-1 treatment analyzed by confocal microscopy. H3255 cells were subjected to immunofluorescence for EGFR protein (red) counterstained with (CRT; green) and colocalization was determined by confocal microscopy. Nuclei were counterstained with ToPro3 (cyan). […] Bar, 10 μm. FIG. 3D illustrates quantification of colocalization using Image J Colormap Software. […] ITB1 localization after 10 μM NGI-1 for 48 h analyzed by (FIG. 3E) surface biotinylation (FIG. 3F) confocal microscopy (green). […]

Cc1cnc(NC(=O)c2cc(S(=O)(=O)N(C)C)ccc2N2CCCC2)s1 [NGI-1, 5-(N,N-Dimethylsulfamoyl)-N-(5-methylthiazol-2-yl)-2-(pyrrolidin-1-yl)benzamide]
cyclin D1 reduced, protein level (cyclin D1; PC9): 40% | cyclin D1 reduced, mRNA level (cyclin D1; PC9, p<0.01): 40%±15% | EGFR N-linked glycosylation (molecular weight on SDS-PAGE) (EGFR): blocked EGFR N-linked glycosylation
